The text below walks through data of EPA's ToxValDB 9.5.

The subject of series [1] is Rattus norvegicus. Particulars: for NOEL / LOEL: Hershberger; for LEL: uterotrophic, Active.
Series [2] concerns Rattus norvegicus. As to conditions: oral.
In series [3] the test system is Rattus norvegicus.
Series [4] deals with Rattus norvegicus. This is another data set of the same source.
For a further series, the system named is Canidae. As to conditions: chronic, oral, diet, M/F, Dog Other.
Series [5] has as its system Rattus norvegicus. Particulars: chronic; duration: 2 years; oral; diet; M/F; reduced body weight gain, erythrocyte count and hemoglobin level.
[6] abbreviates: duration: 10 days, oral, gavage, Sprague-Dawley, inactive + Negative + Negative + neither + negative.
Setting [7] is: short-term, duration: 28 days, gavage, M, Sprague-Dawley, Clinical Observation: Spontaneous locomotion decrease, Respiratory rate decrease, Incomplete eyelid opening SalivationLacrimation Stool ….
The mark [8] stands for this setting: duration: 1 years, hypertrophy of adrenal cortex (both sexes) hematological effects (males).
Setting [9] is: duration: 5 days, oral, gavage, Sprague-Dawley, active + Androgenic + androgenic + advanced age of PPS, histopathology effects on reproductive tissues.
The mark [10] stands for this setting: duration: 1 years, chronic pneumonitis.
The mark [11] stands for this setting: duration: 2 years, liver and kidney effects, reduced body weight, mortality.
The mark [12] stands for this setting: duration: 2 years, liver toxicity.

A word on the NOAEL: it is the highest tested level that showed no adverse finding. What is called LOAEL is the lowest dose or exposure tested at which an adverse effect was seen.

Several values for one entry are separate records, joined by “and”; a condition that tells them apart may be missing. Identical values can stand only once.

As to `COP(=O)(OC)O/C(=C\Cl)c1cc(Cl)c(Cl)cc1Cl` [Z-Tetrachlorvinphos], the NOEL in the series on Rattus norvegicus [1] (setting [6]) was 350 mg/kg-day; in the series on Rattus norvegicus [2] (short-term, duration: 28 days, gavage, M/F, Wistar, Deaths + Clinical Observation: Soiled perineal region + Body Weight Changes: decrease + Blood Chemistry: AST decrease, gamma-GTP increase, …), less than 10 mg/kg-day; with Rattus norvegicus [2] (short-term, duration: 28 days, gavage, M/F, Wistar, Deaths + Clinical Observation: Soiled perineal region + Body Weight Changes: decrease + Hematology: RBC decrease, HGB decrease, HCT decrease…) it was less than 10 mg/kg-day.
`ClCC(Cl)CCl` [1,2,3-Trichloropropane]: the NOEL in the series on Rattus norvegicus [2] (chronic, duration: 17 weeks, gavage, M/F, Fischer 344, Deaths + Body Weight Changes: decrease + Hematology: Hct decrease, RBC decrease, Hgb decrease + Blood Chemistry: Na decrease, Alb increase, …) is less than 8 mg/kg-day; in the series with Rattus norvegicus [2] (setting [7]), less than 15 mg/kg-day. For the same molecule, the NOAEL with Rattus norvegicus [2] (setting [7]) is less than 15 mg/kg-day; in the series with Rattus norvegicus [3] (chronic, duration: 120 days, oral, Blood: Decreased hematocrit + Blood: Decreased hemoglobin + Erythrocytes: Decreased count + Kidney: Lesions + Liver: Lesions + Whole body: …), 8 mg/kg-day; with Rattus norvegicus [4] (short-term, duration: 11 days, inhalation, M/F, Fischer 344, respiratory), 6.03 mg/m3.
In the case of `CCOP(=S)(OCC)Oc1cc(C)nc(C(C)C)n1` [Diazinon], the NOAEL in the series on Rattus norvegicus [3] (subchronic, duration: 42 days, oral, diet, Blood: Decreased cholinesterase activity) stood at 0.09 mg/kg-day; in the series on Rattus norvegicus [4] (chronic, duration: 98 weeks, oral, diet, M/F, Sprague-Dawley, neurological), 0.065 mg/kg-day; with Rattus norvegicus [4] (chronic, duration: 92 days, oral, diet, F, Wistar, neurological) it was 0.6 mg/kg-day; in the series with Rattus norvegicus [4] (short-term, duration: 3 weeks, inhalation, nose only, M/F, albino, neurological) it was 1.57 mg/m3.
For `COP(=S)(OC)Oc1ccc(SC)c(C)c1` [Fenthion], the LOEL in the series with Rattus norvegicus [1] (duration: 7 days, oral, gavage, Fischer 344, active + Antiandrogenic + anti-androgenic) turned out to be 25 mg/kg-day.
Molecule `O=C=Nc1ccc(Cc2ccc(N=C=O)cc2)cc1` [4,4'-Diphenylmethane diisocyanate] yielded an NOAEL with Rattus norvegicus [3] (chronic, duration: 24 months, inhalation, intermittent, Nasal cavity: Lesions) of 0.2 mg/m3.
Take `C[C@H]1[C@H](c2ccc(Cl)cc2)SC(=O)N1C(=O)NC1CCCCC1` [Hexythiazox]: in the series with Canidae (setting [8]), the LEL stood at 12.5 mg/kg-day and the NOEL amounted to 2.5 mg/kg-day.
Consider `C[C@]12CCC(=O)C=C1CC[C@@H]1[C@@H]2CC[C@@]2(C)[C@H]1CC[C@]2(C)O` [17-Methyltestosterone], for which the LOEL with Rattus norvegicus [1] (setting [9]) is 80 mg/kg-day and 100 mg/kg-day; in the series on Rattus norvegicus [1] (duration: 7 days, injection, subcutaneous, Sprague-Dawley, androgenic), 0.16 mg/kg-day. Besides, the NOEL in the series with Rattus norvegicus [1] (setting [9]) stood at 20 mg/kg-day. Also, the LEL turned out to be 10 mg/kg-day with Rattus norvegicus [1] (duration: 3 days, injection, subcutaneous); 0.5 mg/kg-day in the series with Rattus norvegicus [1] (duration: 4 days, injection, subcutaneous); 3 mg in the series with Rattus norvegicus [1] (duration: 14 days, oral).
Turning to `CC1(C)C(C(=O)OC(C#N)c2cccc(Oc3ccccc3)c2)C1(C)C` (stereo unspecified) [Fenpropathrin], in the series with Canidae (duration: 1 years, tremors), the LOAEL is 6.25 mg/kg-day and the NOAEL is 2.5 mg/kg-day.
`CCCN(CC1CC1)c1c([N+](=O)[O-])cc(C(F)(F)F)cc1[N+](=O)[O-]` [Profluralin]: in the series with Rattus norvegicus [3] (subchronic, oral, diet, None Observed), the NOEL worked out at 3 mg/kg-day.
On to `CC(C)(C)C(=O)C(Oc1ccc(Cl)cc1)n1cncn1` (stereo unspecified) [Triadimefon], for which, in the series on Rattus norvegicus [1] (duration: 10 days, oral, gavage, Sprague-Dawley, inactive + Negative + Negative + both + decreased AGD, delayed PPS, decreased AST wt / inhibits CYP17 / increases liver wt 37% and …), the NOEL turned out to be 25 mg/kg-day. In the series on Rattus norvegicus [5], this molecule returned an LEL of 25 mg/kg-day and an NOEL of 2.5 mg/kg-day.
As for `C1=CCC=C1` [1,3-Cyclopentadiene], the NOEL with Rattus norvegicus [3] (chronic, duration: 194 days, inhalation, intermittent, Kidney: Lesions + Liver: Lesions) was determined as 87.3 mg/kg-day.
On to `Brc1cc(-c2ccc(Br)c(Br)c2Br)cc(Br)c1Br` [Polybrominated biphenyls (PBB)], for which the LOAEL with Rattus norvegicus [3] (chronic, duration: 25 weeks, oral, gavage, Liver: Increased weight + Liver: Lesions) is 0.07 mg/kg-day.
As to `[O]=[Sb][O][Sb](=[O])=[O]` [Antimony oxide (Sb2O4)], in the series with Rattus norvegicus [3] (chronic, oral, drinking water, Blood: Altered chemistries + Whole body: Increased mortality), the LOAEL stood at 0.44 mg/kg-day.
Regarding `C[n+]1ccc(-c2cc[n+](C)cc2)cc1` [Paraquat], in the series on Canidae (setting [10]), the LEL amounted to 0.93 mg/kg-day and the NOEL came out at 0.45 mg/kg-day.
Take `CSc1nnc(C(C)(C)C)c(=O)n1N` [Metribuzin]: the NOEL in the series on Rattus norvegicus [1] (setting [6]) was 120 mg/kg-day. Moreover, in the series on Canidae (setting [11]), the LEL was 37.5 mg/kg-day and the NOEL came to 2.5 mg/kg-day.
`CN(C)C(=O)C(c1ccccc1)c1ccccc1` [Diphenamid]: in the series on Canidae (setting [12]), the LEL came to 10 mg/kg-day and the NOEL was found to be 3 mg/kg-day.
With `FB(F)F` [Boron trifluoride], the NOAEL in the series on Rattus norvegicus [3] (subchronic, duration: 13 weeks, inhalation, intermittent, Kidney: Necrosis) was determined as 6 mg/m3.
Turning to `CCC[CH2][Sn]([Cl])([CH2]CCC)[CH2]CCC` [Tributyltin chloride], the LEL in the series on Rattus norvegicus [1] (duration: 0 days, oral, diet) came out at 125 ppm. Further, the NOAEL in the series with Rattus norvegicus [2] (short-term, duration: 28 days, diet, M, Wistar, Body Weight Changes: Weight gain decrease + Food Consumption: decrease + Absolute Organ Weight: Thymus decrease + Relative Organ Weight: …) was found to be 5 ppm.
